Experimental data: US3994882A, “Nitrofuran derivatives, process for the preparation thereof and compositions containing same as active ingredient” (Kabushiki Kaisha Ueno Seiyaku Oyo Kenkyujo, priority 1974, dated 1976)
≈ marks a conversion by molar mass, not a printed value.

Experiments:
[1] = test system: Staphylococcus aureus 72r; assay: Curative action in infected mice (Table 4); assay type: in vivo; conditions: 168 h, mice infected abdominally, oral in 5% gum arabic, observation one week
Method: (§1) Next, in Table 4 are shown the curative actions (ED50 mg/Kg body wt.) and acute toxicities (LD50 mg/kg body wt.) of the typical nitrofuran derivatives of the present invention when used with infected mice.
(§2) Note.- The numerical values in the table denote the amounts per unit body
(§3) weight of the nitrofuran derivatives required for cure when the experimen
(§4) was carried out using mice of body weight of about 20 grams and injecting
(§5) thereinto abdominally the microorganism-containing solutions in amounts o
(§6) 0.2 ml (the microorganism-containing solutions used being those in the
(§7) cases of test microorganisms 1, 3 and 4 in which the microorganism cultur
(§8) liquids were diluted 10^5, 5 and 10^2 times, respectively, and in
(§9) the case of test microorganism 2 that which was concentrated 2 times),
(§10) after which the nitrofuran derivatives suspended in 5% gum arabic were
(§11) forcedly administered orally followed by observation for one week.

[2] = test system: Streptococcus hemolyticus A 089; assay: Curative action in infected mice (Table 4); assay type: in vivo; conditions: Streptococcus pyogenes, A089, 168 h, mice infected abdominally, oral in 5% gum arabic, observation one week
Method: as §1, §2, §3, §4, §5, §6, §7, §8, §9, §10, §11

Escherichia coli K-74 = assay: Curative action in infected mice (Table 4); assay type: in vivo; conditions: K74, 168 h, mice infected abdominally, oral in 5% gum arabic, observation one week
Method: as §1, §2, §3, §4, §5, §6, §7, §8, §9, §10, §11

[3] = test system: Salmonella typhimium K-52; assay: Curative action in infected mice (Table 4); assay type: in vivo; conditions: K52, 168 h, mice infected abdominally, oral in 5% gum arabic, observation one week
Method: as §1, §2, §3, §4, §5, §6, §7, §8, §9, §10, §11

[4] = in vivo; cited from earlier work
infected mice = assay: Curative action in infected mice; assay type: in vivo; conditions: oral
Method: as §2, §3, §4, §5, §6, §7, §8, §9, §10, §11

[5] = test system: Streptococcus hemolyticus, Staphylococcus aureus, Escherichia coli and salmonella species; conditions: cited from earlier work
[6] = Acute toxicity in mice (Table 4); conditions: mouse, in vivo, po
Method: as §1

microorganisms = conditions: compound (A), background; cited from earlier work
[7] = test system: Staphylococcus aureus 209P; assay: Minimum growth inhibiting concentration (Table 1); assay type: cell-based; conditions: TSBI, pH 7.2, 37° C., 48 hours
Method: (§12) For information, the minimum growth inhibiting concentration is a value
(§13) concerning microorganisms cultivated in TSBI the pH of which was adjusted
(§14) to 7.2, each bacteria being incubated at 37° C. for 48 hours.

Proteus vulgaris HX-19 = assay: Minimum growth inhibiting concentration (Table 1); assay type: cell-based; conditions: HX19, TSBI, pH 7.2, 37° C., 48 hours
Method: as §12, §13, §14

Bacillus Subtilis PCI219 = assay: Minimum growth inhibiting concentration (Table 1); assay type: cell-based; conditions: TSBI, pH 7.2, 37° C., 48 hours
Method: as §12, §13, §14

[8] = test system: Streptococcus hemolyticus A 089; assay: Minimum growth inhibiting concentration (Table 1); assay type: cell-based; conditions: Streptococcus pyogenes, A089, TSBI, pH 7.2, 37° C., 48 hours
Method: as §12, §13, §14

[9] = test system: Klebsiella pneumoniae ST-101; assay: Minimum growth inhibiting concentration (Table 1); assay type: cell-based; conditions: ST101, TSBI, pH 7.2, 37° C., 48 hours
Method: as §12, §13, §14

[10] = test system: Diplococcus pneumoniae DP-1; assay: Minimum growth inhibiting concentration (Table 1); assay type: cell-based; conditions: Streptococcus pneumoniae, DP1, TSBI, pH 7.2, 37° C., 48 hours
Method: as §12, §13, §14

[11] = test system: Salmonella enteritidis 1891; assay: Minimum growth inhibiting concentration (Table 1); assay type: cell-based; conditions: Salmonella enterica, TSBI, pH 7.2, 37° C., 48 hours
Method: as §12, §13, §14

[12] = test system: Salmonella pullorum chuyu 114; assay: Minimum growth inhibiting concentration (Table 1); assay type: cell-based; conditions: Salmonella enterica, TSBI, pH 7.2, 37° C., 48 hours
Method: as §12, §13, §14

[13] = test system: Pseudomonas aeruguinosa 347; assay: Minimum growth inhibiting concentration (Table 1); assay type: cell-based; conditions: TSBI, pH 7.2, 37° C., 48 hours
Method: as §12, §13, §14

Escherichia coli O-55 = assay: Minimum growth inhibiting concentration (Table 1); assay type: cell-based; conditions: O55, TSBI, pH 7.2, 37° C., 48 hours
Method: as §12, §13, §14

Structure (SMILES)	ED50 [1]	ED50 [2]	ED50 (Escherichia coli K-74)	ED50 [3]	Concentration in blood [4]	Curative effect in infected mice (in words) (infected mice)	Antimicrobial activity in vitro (in words) [5]	Concentration inhibiting the growth ([5]; in vitro, Streptococcus hemolyticus, Staphylococcus aureus, Escherichia coli and salmonella species)	LD50 [6]	In vivo antimicrobial activity (microorganisms)	MIC [7]	MIC (Proteus vulgaris HX-19)	MIC (Bacillus Subtilis PCI219)	MIC [8]	MIC [9]	MIC [10]	MIC [11]	MIC [12]	MIC [13]	MIC (Escherichia coli O-55)
NC(=O)c1ccc(C=Cc2ccc([N+](=O)[O-])o2)cc1 [Compound A, Para-[2-(5'-nitro-2'-furyl)-vinyl]-benzoylamine, reference compound]	> 400 mg/kg	> 400 mg/kg	> 400 mg/kg	> 400 mg/kg	can scarcely be noted	no curative effects were noted	extremely superior antimicrobial activity in vitro	0.1-3 micrograms per milliliter	> 400 mg/kg	not observed	–	–	–	–	–	–	–	–	–	–
O=C(NCCOCCO)c1ccc(C=Cc2ccc([N+](=O)[O-])o2)cc1 [Example 11, 2-Para-[2'-(5"-nitro-2"-furyl)-vinyl]-benzoylaminoethoxy-2-ethanol]	21 mg/kg	13 mg/kg	29 mg/kg	100 mg/kg	–	–	–	–	1850 mg/kg	–	1.56 µg/mL (≈ 4.5 µM)	6.25 µg/mL (≈ 18 µM)	< 0.19 µg/mL	< 0.19 µg/mL	3.13 µg/mL (≈ 9.04 µM)	0.78 µg/mL (≈ 2.25 µM)	1.56 µg/mL (≈ 4.5 µM)	6.25 µg/mL (≈ 18 µM)	25 µg/mL (≈ 72.2 µM)	6.25 µg/mL (≈ 18 µM)
NC(=O)C(CO)NC(=O)c1ccc(C=Cc2ccc([N+](=O)[O-])o2)cc1 (stereo not drawn) [Example 19, Para-[2-(5'-nitro-2'-furyl)-vinyl]-N-benzoylserine amide]	65 mg/kg	46 mg/kg	–	–	–	–	–	–	> 2000 mg/kg	–	1.56 µg/mL (≈ 4.52 µM)	6.25 µg/mL (≈ 18.1 µM)	< 0.19 µg/mL	< 0.19 µg/mL	6.25 µg/mL (≈ 18.1 µM)	0.78 µg/mL (≈ 2.26 µM)	1.56 µg/mL (≈ 4.52 µM)	6.25 µg/mL (≈ 18.1 µM)	25 µg/mL (≈ 72.4 µM)	12.5 µg/mL (≈ 36.2 µM)
CC(O)CNC(=O)c1ccc(C=Cc2ccc([N+](=O)[O-])o2)cc1 (stereo not drawn) [Example 5, 3-Para[2'-(5"-nitro-2"-furyl)-vinyl]-benzoylamino-2-propanol]	37 mg/kg	19 mg/kg	–	110 mg/kg	–	–	–	–	1700 mg/kg	–	0.78 µg/mL (≈ 2.47 µM)	3.13 µg/mL (≈ 9.9 µM)	< 0.19 µg/mL	0.19 µg/mL (≈ 0.601 µM)	3.13 µg/mL (≈ 9.9 µM)	0.78 µg/mL (≈ 2.47 µM)	1.56 µg/mL (≈ 4.93 µM)	6.25 µg/mL (≈ 19.8 µM)	> 25 µg/mL	6.25 µg/mL (≈ 19.8 µM)
NC(=O)CNC(=O)c1ccc(C=Cc2ccc([N+](=O)[O-])o2)cc1 [Example 16, Para-[2-(5'-nitro-2'-furyl)-vinyl]-N-benzoylglycine amide]	30 mg/kg	34 mg/kg	34 mg/kg	110 mg/kg	–	–	–	–	2000 mg/kg	–	0.78 µg/mL (≈ 2.47 µM)	3.13 µg/mL (≈ 9.93 µM)	< 0.19 µg/mL	< 0.19 µg/mL	3.13 µg/mL (≈ 9.93 µM)	0.39 µg/mL (≈ 1.24 µM)	0.78 µg/mL (≈ 2.47 µM)	3.13 µg/mL (≈ 9.93 µM)	> 25 µg/mL	3.13 µg/mL (≈ 9.93 µM)
O=C(NCCCO)c1ccc(C=Cc2ccc([N+](=O)[O-])o2)cc1 [Example 4, 3-Para-[2'-(5"-nitro-2"-furyl)-vinyl]-benzoylamino-1-propanol]	50 mg/kg	24 mg/kg	–	125 mg/kg	–	–	–	–	1900 mg/kg	–	0.78 µg/mL (≈ 2.47 µM)	6.25 µg/mL (≈ 19.8 µM)	< 0.19 µg/mL	< 0.19 µg/mL	3.13 µg/mL (≈ 9.9 µM)	6.25 µg/mL (≈ 19.8 µM)	3.13 µg/mL (≈ 9.9 µM)	6.25 µg/mL (≈ 19.8 µM)	> 25 µg/mL	3.13 µg/mL (≈ 9.9 µM)
O=C(NCCO)c1cccc(C=Cc2ccc([N+](=O)[O-])o2)c1 [Example 2, 2-Meta-[2'-(5"-nitro-2"-furyl)-vinyl]-benzoylamino-ethanol]	37 mg/kg	34 mg/kg	45 mg/kg	150 mg/kg	–	–	–	–	2000 mg/kg	–	0.78 µg/mL (≈ 2.58 µM)	6.25 µg/mL (≈ 20.7 µM)	< 0.19 µg/mL	< 0.19 µg/mL	1.56 µg/mL (≈ 5.16 µM)	< 0.19 µg/mL	0.78 µg/mL (≈ 2.58 µM)	3.13 µg/mL (≈ 10.4 µM)	25 µg/mL (≈ 82.7 µM)	3.13 µg/mL (≈ 10.4 µM)
